Reference: PMC6715294 (Molecular cancer therapeutics, 2018)

What was measured:
AKT1 = AKT1 (Homo sapiens, UniProt P31749); experiment: ADP-Glo kinase assay with active AKT1; format: biochemical
AKT2 = AKT2 (Homo sapiens, UniProt P31751); experiment: ADP-Glo kinase assay with active AKT2; format: biochemical
AKT2, sequence (P31751 whole entry): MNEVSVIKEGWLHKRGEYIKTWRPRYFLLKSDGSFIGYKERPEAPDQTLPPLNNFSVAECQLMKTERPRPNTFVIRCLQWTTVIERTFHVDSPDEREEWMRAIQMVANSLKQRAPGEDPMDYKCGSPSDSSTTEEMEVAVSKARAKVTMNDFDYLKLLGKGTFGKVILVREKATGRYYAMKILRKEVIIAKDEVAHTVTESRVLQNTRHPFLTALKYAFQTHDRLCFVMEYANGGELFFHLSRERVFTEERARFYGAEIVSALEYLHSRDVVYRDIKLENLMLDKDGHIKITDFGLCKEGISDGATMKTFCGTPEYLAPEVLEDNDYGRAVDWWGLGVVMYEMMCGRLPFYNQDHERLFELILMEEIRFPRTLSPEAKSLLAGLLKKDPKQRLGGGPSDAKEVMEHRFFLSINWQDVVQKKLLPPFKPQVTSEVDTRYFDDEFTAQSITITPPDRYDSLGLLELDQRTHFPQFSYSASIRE

AKT1, sequence (P31749 whole entry): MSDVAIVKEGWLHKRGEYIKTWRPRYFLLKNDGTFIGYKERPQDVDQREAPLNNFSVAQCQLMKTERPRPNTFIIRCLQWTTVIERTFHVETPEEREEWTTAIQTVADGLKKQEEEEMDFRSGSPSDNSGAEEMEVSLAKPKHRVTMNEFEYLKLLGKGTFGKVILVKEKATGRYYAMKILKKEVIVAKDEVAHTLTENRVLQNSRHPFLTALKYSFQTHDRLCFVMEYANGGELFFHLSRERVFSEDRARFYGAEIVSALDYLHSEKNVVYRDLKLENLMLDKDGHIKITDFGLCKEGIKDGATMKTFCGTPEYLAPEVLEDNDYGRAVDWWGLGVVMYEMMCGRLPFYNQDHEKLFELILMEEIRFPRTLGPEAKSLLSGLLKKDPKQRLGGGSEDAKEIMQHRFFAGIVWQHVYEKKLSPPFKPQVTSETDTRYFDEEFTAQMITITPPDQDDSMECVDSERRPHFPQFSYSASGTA

IC50 (AKT1): 8.4 ± 1.34 µM
IC50 (AKT2): 8.9 ± 0.92 µM
SMILES: C=C1C(=O)[C@]23[C@H](O)[C@H]1CC[C@H]2[C@@]12CO[C@]3(O)[C@@H](O)[C@@H]1C(C)(C)CC[C@@H]2O [oridonin]
